Assay results as given in US6919208B2, “Methods and compositions for enhancing the delivery of a nucleic acid to a cell” (The Children's Hospital of Philadelphia, priority 2000, dated 2005).
Like-named read-outs stand apart in the source and are kept apart here.

What was measured:
[1] = system: A10 cells; experiment: p-EGFP-N3 (GFP) plasmid transfection of A10 cells on native type I collagen with cytochalasin D added after lipofection; format: cell-based, Rat; settings: 1 nanomolar
Method: A10 cells were grown on native type I collagen. […] Immediately after lipofection, cytochalasin D at a final concentration of 1 nanomolar was either added to cells for thirty minutes, added to cells for an overnight incubation or not added at all (control). The fluorescence of control cells, cells treated with cytochalasin D for thirty minutes, and cells treated with cytochalasin D for an overnight incubation (FIGS. 6A, 6B and 6C, respectively) was assessed. Bright field micrographs were also taken of the control cells, cells treated with cytochalasin D for thirty minutes, and cells treated with cytochalasin D for an overnight incubation (FIGS. 7A, 7B and 7C, respectively).

[2] = system: A10 cells
Method: A10 cells were grown on native type I collagen containing 0, 15 and 50 micrograms per milliliter of Tenascin C. The cells were transfected with p-EGFP-N3 (green fluorescent protein) plasmid DNA.

Row | Compound | transfection (GFP expression), time dependence ([1]; added immediately after lipofection) | transfection relative to control cells ([1]; overnight exposure) | transfection relative to control cells ([1]; thirty minute exposure) | cell morphology (bright field micrograph) [2] | transfection (GFP expression), dose dependence ([2]; 0, 15 and 50 micrograms per milliliter in native type I collagen, 24 h after transfection) | transfection (GFP fluorescence) ([2]; 15 micrograms per milliliter in native type I collagen, 24 h after transfection) | transfection (GFP fluorescence) ([2]; 50 micrograms per milliliter in native type I collagen, 24 h after transfection)
1 | C=C1[C@@H](C)[C@H]2[C@H](Cc3ccccc3)NC(=O)[C@]23[C@H](OC(C)=O)/C=C/[C@@](C)(O)C(=O)[C@@H](C)C/C=C/[C@H]3[C@@H]1O [cytochalasin D] | time-dependent increase in transfection | notably higher amount of transfection | increased transfection |  |  |  | 
2 | Tenascin C: extracellular matrix protein abundantly expressed within remodeling tissues; added to native type I collagen |  |  |  | normal cell morphology | dose-dependent increase in transfection | increased transfection | highest degree of transfection
